According to US8673594B2, “Methods for stimulating nervous system regeneration and repair by regulating arginase I and polyamine synthesis” (Research Foundation of City University of New York, priority 2000, dated 2014):

Columns and labels:
[1] = test system: cerebellar neurons on MAG-expressing CHO cells; experiment: Neurite outgrowth of cerebellar neurons on MAG-expressing or control CHO cells; format: cell-based
Procedure: FIG. 2: Improved Axonal Growth on MAG Induced By Elevating cAMP Levels is Transcription-Dependent. (A) Isolated cerebellar neurons at a density of 20,000 neurons per well were plated onto a monolayer of either MAG-expressing Chinese hamster ovary (CHO) cells (striped bars) or control CHO cells (black bars) and cultured overnight before being fixed and immunostained for GAP43 to visualize the neurites. The length of the longest neurite per neuron, from 180-200 neurons, was measured and results are the average length+/−SEM. Where indicated, dibutyryl cAMP (dbcA) at 1 mM in the presence or absence of the inhibitor of transcription, 5,6-dichloro-1-b-D-ribofuranosylbenzimidazole (DRB) at 5 μM, was added to each culture. (B) Cerebellar neurons (1×10^6) were plated onto poly-L-lysine and cultured overnight with brain-derived neurotrophic factor (BDNF) at 200 ng/ml, (termed priming) in the presence or absence of DRB at 5 μM, before being transferred to the CHO cell monolayers.
FIG. 6: An Ornithine Decarboxylase (ODC) Inhibitor Abrogates the Blocking Effect of dbcAMP on the Inhibition of Axonal Outgrowth by MAG and Myelin. […] The longest neurite from at least 180-200 neurons were measured. Results are shown as the mean neurite length+/−SEM.
(§1) After further incubation, neurons were fixed and immunostained for GAP43. The longest neurite from each neuron for 180-200 neurons were measured. Results are shown as the mean neurite length+/−SEM.
FIG. 8: An Inhibitor Of ODC Blocks The Priming Effects Of GDNF On The Inhibition By MAG. […] After further incubation, neurons were fixed and immunostained for GAP43. The longest neurite from each neuron for 180-200 neurons were measured. Results are shown as the mean neurite length±SEM.
Primed neurons were transferred to either MAG-expressing or control CHO cells (A) or a substrate of CNS myelin (B) for further incubation. Neurons were then fixed and immunostained for GAP43. The longest neurite from each neuron was measured for 180-200 neurons. Results are shown as the percentage of control. […]
Neurons were isolated essentially as described in Doherty at al., Nature, 343, pp. 464-66 (1990); Neuron, 5, pp. 209-19 (1990); and Kleitman at al., Culturing Nerve Cells, pp. 337-78, MIT Press, Cambridge, Mass./London, England (G. Banker and K Goslin, Eds.) (1991). Briefly, for animals up to nine days of age, the cerebellum, from two animals were removed and combined in 5 ml of 0.025% trypsin in PBS, triturated, and incubated for a further 10 minutes (min.) at 37° C. Trypsinization was stopped by addition of 5 ml DMEM containing 10% fetal calf serum (FCS) and cells were centrifuged at 800 rpm for 6 min. […] For older DRG neurons, ganglia were removed from two animals and incubated in 5 ml of Sat medium containing 0.025% trypsin and 0.15% collagenase type I (Worthington) for 30 min. at 37° C. The ganglia were triturated with a fire-polished Pasteur pipette. Trypsinization was stopped by adding 5 ml of DMEM containing 10% FCS, centrifuged at 800 rpm for 6 min, and resuspended in 2 ml of SAT (DeBellard et al., 1996). Cells were counted with a Coulter counter.
Chinese hamster ovary (CHO) cells deficient in the dihydrofolate reductase (dhfr) gene (Urlaub and Chasin, Proc. Natl, Acad, Sci. 77, pp. 4216-20 (1980)) were transfected with a MAG-cDNA expression plasmid with the dhfr gene and the L-MAG cDNA, cells with multiple copies of dbfr were selected by growing in increasing concentrations of methotrexate, and the expression of MAG by individual transfected CHO cell lines characterized as described in Mukhopadhyay et al., Neuron, 13, pp. 757-67 (1994), which is incorporated herein by reference. The MAG-expressing transfected CHO cell line) (“CHO-MAG2”) in that publication was deposited on Jun. 27, 1996 with the American Type Culture Collection (ATCC) (Rockville, Md.) according to the provisions of the Budapest Treaty, and was assigned the ATCC accession number designated: ATCC CRL-12145. […]

[2] = test system: DRG neurons on MAG-expressing CHO cells; experiment: Neurite outgrowth of DRG neurons on MAG-expressing or control CHO cells; format: cell-based; details: P0-1 DRG neurons, DFMO 1 mM
Procedure: After overnight incubation, neurons were fixed and immunostained for GAP 43. The longest neurite from each of 120-150 DRG neurons were measured. Results are shown as the mean neurite length+/−SEM.
FIG. 14: Over-Expression Of Arginase In Older DRG Neurons By Adenovirus-Mediated Gene Transfer Is Sufficient To Overcome Inhibition By MAG. Postnatal day 5 DRG neurons (0.5×10^6) were plated in 24-well plates and infected with adenovirus containing ArgI-GFP or GFP alone. Alter overnight culture, infected neurons were transferred to MAG-expressing (stippled bars) or control (black bars) CHO cells for neurite outgrowth. Neurons were fixed and immunostained for GAP43. The neurons with double staining of GAP43 and GFP were considered as positively infected. The length of the longest neurite per neuron was measured for 120-150 positively infected neurons. Results are shown as the average neurite length+/−SEM of GFP-infected (GFP) or ArgI-infected (ArgI) neurons grown on MAG.
Neurons were isolated essentially as described in Doherty at al., Nature, 343, pp. 464-66 (1990); Neuron, 5, pp. 209-19 (1990); and Kleitman at al., Culturing Nerve Cells, pp. 337-78, MIT Press, Cambridge, Mass./London, England (G. Banker and K Goslin, Eds.) (1991). […] Cells were counted with a Coulter counter. […]

arginase = molecular target: T1, arginase (Rattus norvegicus, UniProt P07824); details: cited from earlier work
T1 sequence (P07824 1-323): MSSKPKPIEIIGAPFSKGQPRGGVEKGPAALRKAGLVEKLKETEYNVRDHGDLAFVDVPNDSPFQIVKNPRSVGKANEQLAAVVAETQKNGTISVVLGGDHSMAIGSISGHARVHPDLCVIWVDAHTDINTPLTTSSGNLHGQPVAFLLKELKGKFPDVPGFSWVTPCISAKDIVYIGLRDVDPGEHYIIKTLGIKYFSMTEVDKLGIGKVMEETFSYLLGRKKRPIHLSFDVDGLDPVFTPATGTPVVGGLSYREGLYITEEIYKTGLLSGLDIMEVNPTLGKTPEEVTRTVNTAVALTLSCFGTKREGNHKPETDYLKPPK

[3] = test system: cerebellar neurons on purified CNS myelin; experiment: Neurite outgrowth of cerebellar neurons on purified CNS myelin substrate; format: cell-based
Procedure: Isolated cerebellar neurons at a density of 20,000 neurons per well were plated onto a substrate of purified CNS myelin and cultured overnight before being fixed and immunostained for GAP43. The length of the longest neurite per neuron from 180-200 neurons was measured and results are the average length+/−SEM. Where indicated, dibutyryl cAMP (dbcA) at 1 mM in the presence or absence of the inhibitor of transcription, 5,6-dichloro-1-b-D-ribofuranosylbenzimidazole (DRB) at 5 μM, was added to each culture. (B) Cerebellar neurons (1×10^6) were plated onto poly-L-lysine and cultured overnight with brain-derived neurotrophic factor (BDNF) at 200 ng/ml, (termed priming) in the presence or absence of DRB at 5 μM, before being transferred to the CNS myelin substrate.
The longest neurite from at least 180-200 neurons were measured. Results are shown as the mean neurite length+/−SEM.
as §1
Primed neurons were transferred to either MAG-expressing or control CHO cells (A) or a substrate of CNS myelin (B) for further incubation. Neurons were then fixed and immunostained for GAP43. The longest neurite from each neuron was measured for 180-200 neurons.
Trypsinization was stopped by addition of 5 ml DMEM containing 10% fetal calf serum (FCS) and cells were centrifuged at 800 rpm for 6 min. […] The ganglia were triturated with a fire-polished Pasteur pipette. […] Cells were counted with a Coulter counter.
The neurite outgrowth assay was carried out by adding 5×10^4 neurons to the immobilized myelin substrate or 2×10^4 neurons to the CHO cell monolayers. Briefly, confluent monolayers of control and MAG-expressing CHO cells were established over a 24-hour (h) period in individual chambers of an 8-well tissue culture slide (Lab-Tek). […] Culture medium was SATO containing 2% FCS.
GAP43 antibody was detected by staining with Texas Red and arginase antibody was detected with anti-biotin secondary antibody followed by Texas Red-conjugated streptavidin.
After periods of time as indicated, the co-cultures were fixed for 30 min with 4% paraformaldehyde and permeabilized with ice-cold methanol for 2 min. […] After three more washes, the slides were mounted in Permfluor (Baxter) and viewed with a Zeiss fluorescent microscope. The length of the longest neurite for each GAP43-positive neuron was determined using the Biological Detection System image analysis program (Pittsburgh).

[4] = putrescine in the culture, no priming

SMILES: Cl.NCCCC(N)(C(=O)O)C(F)F (racemic) [DFMO, DL-a-difluoromethyl-ornithine hydrochloride]
- effect on the positive (priming) effect of BDNF on axonal growth in the presence of MAG ([1]; DFMO 1 mM during overnight priming with BDNF 200 ng/ml): completely abrogated
- effect on the positive (priming) effect of GDNF on axonal growth in the presence of MAG ([1]; DFMO 1 mM during overnight priming with GDNF 200 ng/ml): completely abrogated
- effect on the dbcAMP block of inhibition by MAG ([1]; DFMO 1 mM with dbcAMP 1 mM): lost
- effect alone on neurite growth on control CHO cells ([1]; DFMO 1 mM, control CHO cells): no significant effect
- effect alone on inhibition by MAG ([1]; DFMO 1 mM, no dbcAMP): no significant effect
- effect alone on neurite growth on control CHO cells, young DRG neurons [2]: no effect
- effect on promotion of axonal growth by MAG in young DRG neurons ([2]; overnight): completely abolished

SMILES: N[C@@H](CCCCB(O)O)C(=O)O [ABH, 2(S)-amino-6-boronohexanoic acid]
- arginase inhibitor potency, in words (arginase): most potent inhibitor of arginase identified to date

SMILES: OC[C@H]1O[C@@H](n2cnc3cc(Cl)c(Cl)cc32)[C@H](O)[C@@H]1O [DRB, 5,6-dichloro-1-b-D-ribofuranosylbenzimidazole]
- effect of transcription inhibitor on the dbcAMP/BDNF block of MAG inhibition ([1]; DRB 5 μM with dbcAMP 1 mM or BDNF 200 ng/ml priming): neither dbcAMP nor BDNF block inhibition

SMILES: NCCCCN [putrescine]
- putrescine dose above which the blocking effect on MAG saturates ([1]; overnight priming): higher than 25 μM
- effect of putrescine on BDNF priming blocked by DFMO (MAG) ([1]; putrescine (10 mM as printed elsewhere in the source) with DFMO 1 mM and BDNF during priming): restored the priming effect of BDNF
- block of inhibition of axonal growth by MAG, putrescine added without priming [1, 4]: only partially blocks
- putrescine concentration at which the blocking effect on myelin saturates ([3]; overnight priming): about 50 μM
- increase in axonal outgrowth on CNS myelin ([3]; priming with putrescine at 10 μM): two-fold
- block of inhibition of axonal growth by myelin, putrescine added without priming [3, 4]: only partially blocks
